We go through 18 compounds from patent US20170280720A1, “ARGININE […] INHIBITORS AND USES THEREOF” (EPIZYME, INC., priority 2014, published 2017).

Molecules are shown by their SMILES.

The target in the first assay is T1, Human CARM1 (PRMT4) (Homo sapiens, UniProt Q86X55).
T1 construct: Flag-CARM1-His; made in house; host or cells: HEK 293F cells (BacMam baculovirus, pFastBacMam)
T1 sequence (Q86X55 2-585 isoform Q86X55-1): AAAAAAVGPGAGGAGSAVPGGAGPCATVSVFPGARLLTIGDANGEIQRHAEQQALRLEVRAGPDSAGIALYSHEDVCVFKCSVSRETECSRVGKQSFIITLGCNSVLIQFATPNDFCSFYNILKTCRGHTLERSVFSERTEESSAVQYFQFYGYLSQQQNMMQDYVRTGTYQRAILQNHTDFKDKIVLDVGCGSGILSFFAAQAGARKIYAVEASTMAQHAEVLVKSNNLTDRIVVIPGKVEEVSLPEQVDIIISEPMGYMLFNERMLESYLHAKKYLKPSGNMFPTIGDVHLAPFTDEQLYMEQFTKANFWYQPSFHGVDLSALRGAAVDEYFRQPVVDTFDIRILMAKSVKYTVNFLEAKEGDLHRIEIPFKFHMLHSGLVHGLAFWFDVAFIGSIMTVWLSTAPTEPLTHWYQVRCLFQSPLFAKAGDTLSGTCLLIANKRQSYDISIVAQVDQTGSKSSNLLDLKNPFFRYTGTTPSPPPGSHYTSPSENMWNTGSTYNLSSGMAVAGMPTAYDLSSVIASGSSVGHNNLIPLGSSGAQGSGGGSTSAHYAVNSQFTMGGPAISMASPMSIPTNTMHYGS
The experiment in a line: CARM1 biochemical assay (3H-SAM Flashplate, peptide substrate). Particulars: read-out: CARM1_ IC50. An excerpt:
S-adenosylmethionine (SAM), S-adenosylhomocysteine (SAH), bicine, Tween20, dimethylsulfoxide (DMSO), bovine skin gelatin (BSG), sodium butyrate and Tris(2-carboxyethyl)phosphine hydrochloride solution (TCEP) were purchased from Sigma-Aldrich at the highest level of purity possible. ^3H-SAM was purchase from American Radiolabeled Chemicals with a specific activity of 80 Ci/mmol. 384-well streptavidin Flashplates were purchased from PerkinElmer.
Peptide representative of human histone H3 residues 16-30 was synthesized with an N-terminal linker-affinity tag motif and a C-terminal amide cap by 21st Century Biochemicals. The peptide was purified by high-performance liquid chromatography (HPLC) to greater than 95% purity and confirmed by liquid chromatography mass spectrometry (LC-MS). The sequence was Biot-Ahx-[…]-amide and contained a monomethylated arginine at position 26 (SEQ ID NO.: 14).
Human CARM1 (PRMT4) (NM_199141.1) transcript clone was amplified from an HEK 293 cDNA library, incorporating a flanking 5′ sequence encoding a FLAG tag ([…]) (SEQ ID NO.: 6) fused directly to Ala 2 of CARM1 and 3′ sequence encoding a hexa His sequence ([…]) (SEQ ID NO.: 15) fused directly to Ser 608. The gene sequence encoding isoform1 containing a deletion of amino acids 539-561 was amplified subsequently and subcloned into pFastBacMam (Viva Biotech).
Recombinant baculovirus were generated according to Bac-to-Bac kit instructions (Life Technologies). […] Infections were carried out at 37° C. for 48 hours, harvested by centrifugation, and stored at −80° C. for purification.
Column was washed with 500 mM NaCl in buffer A and Flag-CARM1-His was eluted with 200 ug/ml FLAG peptide in buffer A. Pooled fractions were dialyzed in 20 mM Tris, 150 mM NaCl, 5% glycerol and 1 mM DTT, pH 7.8. The purity of recovered protein was 94.
General Procedure for CARM1 Enzyme Assays on Peptide Substrates.
The assays were all performed in a buffer consisting of 20 mM Bicine (pH=7.6), 1 mM TCEP, 0.005% BSG, and 0.002% Tween 20, prepared on the day of use. Compounds in 100% DMSO (1 ul) were spotted into a polypropylene 384-well V-bottom plates (Greiner) using a Platemate Plus outfitted with a 384-channel head (Thermo Scientific). DMSO (1 ul) was added to Columns 11, 12, 23, 24, rows A-H for the maximum signal control and 1 ul of SAH, a known product and inhibitor of CARM1, was added to columns 11, 12, 23, 24, rows I-P for the minimum signal control. A cocktail (40 ul) containing the CARM1 enzyme was added by Multidrop Combi (Thermo-Fisher). The compounds were allowed to incubate with CARM1 for 30 min at room temperature, then a cocktail (10 ul) containing ^3H-SAM and peptide was added to initiate the reaction (final volume=51 ul). The final concentrations of the components were as follows: CARM1 was 0.25 nM, ^3H-SAM was 30 nM, peptide was 250 nM, SAH in the minimum signal control wells was 1 mM, and the DMSO concentration was 2%. The assays were stopped by the addition of non-radiolabeled SAM (10 ul) to a final concentration of 300 uM, which dilutes the ^3H-SAM to a level where its incorporation into the peptide substrate is no longer detectable. 50 ul of the reaction in the 384-well polypropylene plate was then transferred to a 384-well Flashplate and the biotinylated peptides were allowed to bind to the streptavidin surface for at least 1 hour before being washed once with 0.1% Tween20 in a Biotek ELx405 plate washer. The plates were then read in a PerkinElmer TopCount plate reader to measure the quantity of ^3H-labeled peptide bound to the Flashplate surface, measured as disintegrations per minute (dpm) or alternatively, referred to as counts per minute (cpm).
Where dpm=disintegrations per minute, cmpd=signal in assay well, and min and max are the respective minimum and maximum signal controls.
Where top and bottom are the normally allowed to float, but may be fixed at 100 or 0 respectively in a 3-parameter fit. […]
`CNCCN(C)Cc1cccc(-c2cc(C(=O)N3CCSCC3)c3cnn(C(C)C)c3n2)c1` [Compound 322]: the IC50 was determined as 456 nM.
The same measure, in the same setting: the result for `CNCCN(C)Cc1cccc(-c2cc(C(=O)N3CCC(F)(F)C3)c3cnn(C(C)C)c3n2)c1` [Compound 299] reads 203 nM; that for `CNCCN(C)Cc1cccc(-c2cc(C(=O)N3CCC(OC)C3)c3cnn(C(C)C)c3n2)c1` (stereo not drawn) [Compound 302], 233 nM.
On to `Cc1cc(C)c(CNC(=O)c2cc(-c3ccc(CN(C)CCN4CCCC4)cc3)nc3c2cnn3C(C)C)c(=O)[nH]1` [Compound 364], for which the 50% inhibitory concentration (IC50) was 50000 nM.
As to `CNCCN(C)Cc1cccc(-c2cc(-c3c(C)n[nH]c3C)c3cnn(C(C)C)c3n2)c1` [Compound 200], the IC50 amounted to 16.7 nM.
With `CNCCN(C)Cc1cccc(-c2cc(N(CC3CC3)CC3CC3)c3cnn(C(C)C)c3n2)c1` [Compound 218], the half-maximal inhibitory concentration (IC50) was 30.9 nM.
As for `CNCCN(C)Cc1cccc(-c2cc(C(=O)N[C@@H](C)c3ccccc3)c3cn(Cc4ccccn4)nc3n2)c1` [Compound 221], the 50% inhibitory concentration (IC50) amounted to 32.6 nM.
Consider `CNCCN(C)Cc1cccc(-c2cc(C(=O)N[C@@H](C)c3ccccc3)c3cn(Cc4cccnc4)nc3n2)c1` [Compound 236], for which the IC50 stood at 46 nM.
For the compound `CNCCN(C)Cc1cccc(-c2cc(C(=O)NC(C)c3ccccc3)c3cnn(C4CCOCC4)c3n2)c1` (stereo not drawn) [Compound 248], the IC50 amounted to 55.5 nM.
In the case of `CNCCN(C)Cc1cccc(-c2cc(C(=O)N3CCC(F)C3)c3cnn(C(C)C)c3n2)c1` (stereo not drawn) [Compound 313], the half-maximal inhibitory concentration (IC50) turned out to be 312 nM.
For the compound `CNCCN(C)Cc1cccc(-c2cc(C(=O)N3CCOCC3)c3cnn(C(C)C)c3n2)c1` [Compound 321], the IC50 is 453 nM.
Same read-out and setting: the same measure for `CNCCN(C)Cc1cccc(-c2cc(C(O)C3CCOCC3)c3cnn(C(C)C)c3n2)c1` (stereo not drawn) [Compound 315]: 368 nM.
Take `CNCCN(C)Cc1cccc(-c2cc(C(=O)NCC3CCOCC3)c3cnn(Cc4ccccn4)c3n2)c1` [Compound 318]: the half-inhibitory concentration (IC50) was 398 nM.
Take `CNCCN(C)Cc1cccc(-c2cc(C(=O)NCc3ccccc3Cl)c3cnn(C(C)C)c3n2)c1` [Compound 268]: the IC50 was determined as 77.3 nM.
Same read-out and setting: the same measure for `CNCCN(C)Cc1cccc(-c2cc(C(=O)N(C)CC(F)(F)F)c3cnn(C(C)C)c3n2)c1` [Compound 310]: 283 nM; for `CC(C)n1ncc2c(C(=O)NCC3COC3)cc(-c3cccc(CN(C)CCN)c3)nc21` [Compound 204]: 19.2 nM.

The target in a further assay is T2, human PRMT1 (Homo sapiens, UniProt Q99873).
T2 construct: GST-tagged PRMT1; made in house; host or cells: High Five insect cells (baculovirus, pFastBacI)
T2 sequence (Q99873 with tags, fused parts or gaps): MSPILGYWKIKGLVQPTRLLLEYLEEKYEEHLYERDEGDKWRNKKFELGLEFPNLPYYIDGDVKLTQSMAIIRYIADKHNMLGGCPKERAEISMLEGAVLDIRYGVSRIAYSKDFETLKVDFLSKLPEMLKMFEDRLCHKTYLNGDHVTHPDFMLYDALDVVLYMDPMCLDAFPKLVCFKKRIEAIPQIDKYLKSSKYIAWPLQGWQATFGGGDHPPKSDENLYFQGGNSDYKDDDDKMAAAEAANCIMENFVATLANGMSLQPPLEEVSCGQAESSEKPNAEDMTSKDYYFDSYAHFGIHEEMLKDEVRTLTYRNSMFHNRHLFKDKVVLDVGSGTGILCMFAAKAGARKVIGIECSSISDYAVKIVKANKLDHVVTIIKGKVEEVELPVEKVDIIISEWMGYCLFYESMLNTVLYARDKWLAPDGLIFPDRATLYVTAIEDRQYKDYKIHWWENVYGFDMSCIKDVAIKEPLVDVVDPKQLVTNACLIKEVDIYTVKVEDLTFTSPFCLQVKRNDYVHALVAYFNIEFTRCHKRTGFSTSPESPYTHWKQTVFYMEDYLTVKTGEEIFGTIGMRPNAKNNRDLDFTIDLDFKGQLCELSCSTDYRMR
The experiment in a line: PRMT1 biochemical assay (3H-SAM Flashplate, peptide substrate). The conditions noted are these: read-out: PRMT1_ IC50. An excerpt:
S-adenosylmethionine (SAM), S-adenosylhomocysteine (SAH), bicine, Tween20, dimethylsulfoxide (DMSO), bovine skin gelatin (BSG), and Tris(2-carboxyethyl)phosphine hydrochloride solution (TCEP) were purchased from Sigma-Aldrich at the highest level of purity possible. ^3H-SAM was purchase from American Radiolabeled Chemicals with a specific activity of 80 Ci/mmol. 384-well streptavidin Flashplates were purchased from PerkinElmer.
Peptide representative of human histone H4 residues 36-50 was synthesized with an N-terminal linker-affinity tag motif and a C-terminal amide cap by 21st Century Biochemicals. The peptide was purified by high-performance liquid chromatography (HPLC) to greater than 95% purity and confirmed by liquid chromatography mass spectrometry (LC-MS). The sequence was Biot-Ahx-[…]-amide (SEQ ID NO.: 1).
Full-length human PRMT1 isoform 1 (NM_001536.5) transcript clone was amplified from an HEK 293 cDNA library, incorporating flanking 5′ sequence encoding a FLAG tag ([…]) (SEQ ID NO.: 2) fused directly to Met 1 of PRMT1. The amplified gene was subcloned into pFastBacI (Life Technologies) modified to encode an N-terminal GST tag and a TEV cleavage sequence ([…] […] […] […] QGGNS)(SEQ ID NO.: 3) fused to Asp of the Flag tag of PRMT1.
Recombinant baculovirus were generated according to Bac-to-Bac kit instructions (Life Technologies). Protein over-expression was accomplished by infecting exponentially growing High Five insect cell culture at 1.5×10^6 cell/ml with 1:100 ratio of virus. Infections were carried out at 27° C. for 48 hours, harvested by centrifugation, and stored at −80° C. for purification.
GST-tagged PRMT1 was eluted with 50 mM Tris, 2 mM glutathione, pH 7.8, dialysed in buffer A and concentrated to 1 mg/mL. The purity of recovered protein was 73%. Reference: Wasilko, D. J. and S. E. Lee: “TIPS: titerless infected-cells preservation and scale-up” Bioprocess J., 5 (2006), pp. 29-32.
General Procedure for PRMT1 Enzyme Assays on Peptide Substrates.
The assays were all performed in a buffer consisting of 20 mM Bicine (pH=7.6), 1 mM TCEP, 0.005% BSG, and 0.002% Tween 20, prepared on the day of use. Compounds in 100% DMSO (1 ul) were spotted into a polypropylene 384-well V-bottom plates (Greiner) using a Platemate Plus outfitted with a 384-channel head (Thermo Scientific). DMSO (1 ul) was added to Columns 11, 12, 23, 24, rows A-H for the maximum signal control and 1 ul of SAH, a known product and inhibitor of PRMT1, was added to columns 11, 12, 23, 24, rows I-P for the minimum signal control. A cocktail (40 ul) containing the PRMT1 enzyme was added by Multidrop Combi (Thermo-Fisher). The compounds were allowed to incubate with PRMT1 for 30 min at room temperature, then a cocktail (10 ul) containing SAM and peptide was added to initiate the reaction (final volume=51 ul). The final concentrations of the components were as follows: PRMT1 was 0.5 nM, ^3H-SAM was 200 nM, non-radiolabeled SAM was 1.5 uM, peptide was 20 nM, SAH in the minimum signal control wells was 1 mM, and the DMSO concentration was 2%. The assays were stopped by the addition of non-radiolabeled SAM (10 ul) to a final concentration of 300 uM, which dilutes the ^3H-SAM to a level where its incorporation into the peptide substrate is no longer detectable. 50 ul of the reaction in the 384-well polypropylene plate was then transferred to a 384-well Flashplate and the biotinylated peptides were allowed to bind to the streptavidin surface for at least 1 hour before being washed once with 0.1% Tween20 in a Biotek ELx405 plate washer. The plates were then read in a PerkinElmer TopCount plate reader to measure the quantity of ^3H-labeled peptide bound to the Flashplate surface, measured as disintegrations per minute (dpm) or alternatively, referred to as counts per minute (cpm).
Where dpm=disintegrations per minute, cmpd=signal in assay well, and min and max are the respective minimum and maximum signal controls. […]
`Cc1cc(C)c(CNC(=O)c2cncc(-c3cccc(CN(C)CCN)c3)c2)c(=O)[nH]1` [Compound 380]: the IC50 stood at 340 nM.
Regarding `CNCCN(C)Cc1cccc(-c2cncc(C(=O)NCc3c(C)cc(C)[nH]c3=O)c2)c1` [Compound 375], the IC50 came out at 101 nM.
